The Kinase Knowledgebase extract (Sharma et al. 2016)

Legend:
[1] = biological target: MAPK14 (human) (UniProt Q16539); test: Inhibition of LPS-Induced TNF-alpha Production in THP-1 Cells; details: thp1
[2] = biological target: MAPK14 (UniProt Q16539); test: Enzyme Assay
Chain of MAPK14 (Q16539 whole entry, looked up): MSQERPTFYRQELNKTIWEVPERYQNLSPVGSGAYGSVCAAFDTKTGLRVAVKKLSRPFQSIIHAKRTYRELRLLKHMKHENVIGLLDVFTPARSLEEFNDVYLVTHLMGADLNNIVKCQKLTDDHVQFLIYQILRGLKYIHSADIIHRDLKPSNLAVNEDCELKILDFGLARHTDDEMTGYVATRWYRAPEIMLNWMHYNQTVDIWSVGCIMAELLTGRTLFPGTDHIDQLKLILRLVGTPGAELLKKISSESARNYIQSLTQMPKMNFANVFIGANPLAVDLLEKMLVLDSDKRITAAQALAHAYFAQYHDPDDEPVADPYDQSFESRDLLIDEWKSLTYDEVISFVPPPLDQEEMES

Chain of MAPK14 (human) (Q16539 whole entry, looked up): as above

| SMILES | IC50 [1] [µM] | IC50 [2] [µM] |
| --- | --- | --- |
| O=C(Nc1ccc(F)c(COc2cnccn2)c1)Nc1cc(C2CCCO2)nn1-c1ccc(F)cc1 (configuration not stated) |  | < 2 |
| O=C(Nc1ccc(Cl)c(COc2cccnc2)c1)Oc1ccccc1 |  | < 20 |
| O=C(Nc1ccc(F)c(COc2cnccn2)c1)c1cccc(S(=O)(=O)N2CCOCC2)c1 |  | < 2 |
| Nc1ncccc1OCn1nnc2ccccc21 |  | < 1000 |
| CC(C)(C)n1nc(-c2ccccc2)cc1NC(=O)Nc1ccc(F)c(COc2cnccn2)c1 |  | < 20 |
| O=C(Nc1ccc(F)c(COc2cnccn2)c1)c1nnc(-c2ccccc2)o1 |  | < 2 |
| CC(C)c1nnc(NC(=O)Nc2ccc(F)c(COc3cccnc3)c2)s1 |  | < 20 |
| O=C(Nc1ccc(F)c(COc2cnccn2)c1)Nc1nnc(-c2ccccc2)s1 |  | < 200 |
| CC(C)(C)c1ccccc1NC(=O)Nc1ccc(F)c(COc2cccnc2)c1 |  | < 20 |
| Nc1ncccc1OCc1cccc(Cl)c1 |  | < 1000 |
| O=C(Nc1ccc(F)c(COc2cccnc2)c1)c1ccccc1 |  | < 200 |
| O=C(Nc1ccc(F)c(COc2cnccn2)c1)c1ccc2ccccc2c1 |  | < 20 |
| O=C(Nc1ccc(F)c(COc2cnccn2)c1)Nc1cc(-c2ccccc2)nn1-c1ccccc1 |  | < 2 |
| O=C(Nc1ccc(F)c(COc2cnccn2)c1)c1ccc(=O)n(Cc2ccccc2)c1 |  | < 20 |
| O=C(Nc1ccc(F)c(COc2cnccn2)c1)Nc1nc(-c2ccccc2)cs1 |  | < 20 |
| Nc1ncccc1OCc1cccc(-c2ccccc2)c1 |  | < 200 |
| Cc1cc(C)c2nc(NC(=O)Nc3ccc(F)c(COc4cnccn4)c3)sc2c1 |  | < 1000 |
| Cc1noc(-c2ccccc2)c1C(=O)Nc1ccc(F)c(COc2cnccn2)c1 |  | < 200 |
| O=C1c2ccccc2C(O)N1c1ccc(Cl)c(COc2cccnc2)c1 (configuration not stated) |  | < 200 |

| SMILES | IC50 [1] [µM] | IC50 [2] [µM] |
| --- | --- | --- |
| O=C(Nc1ccccc1)Nc1ccc(Cl)c(COc2cccnc2)c1 |  | < 20 |
| Nc1ncccc1OCc1csc2ccccc12 |  | < 1000 |
| O=C(Nc1ccccc1)C(=O)Nc1ccc(Cl)c(COc2cccnc2)c1 |  | < 2 |
| CC(C)(C)c1cc(NC(=O)Nc2ccc(Cl)c(COc3cccnc3)c2)n(-c2ccccc2)n1 |  | < 2 |
| CC(C)(C)c1cc(NC(=O)Nc2ccc(F)c(COc3cnccn3)c2)n(-c2ccc(Cl)cc2)n1 |  | < 2 |
| c1cc(COc2cnccn2)cc(Nc2nc3ccccc3o2)c1 |  | < 200 |
| O=C(Nc1ccc(F)c(COc2cnccn2)c1)c1cc(On2nnc3ccccc32)nc(Cl)n1 |  | < 1000 |
| Nc1ncccc1OCc1ccc(F)cc1F |  | < 1000 |
| Nc1ncccc1OCc1cc(NC(=O)c2ccccc2)ccc1Cl |  | < 20 |
| O=C(Nc1ccc(F)c(COc2cnccn2)c1)Nc1cc(-c2ccc(Cl)cc2)nn1-c1ccc(F)cc1 |  | < 2 |
| c1cncc(OCc2cccc3ccccc23)c1 |  | < 1000 |
| O=C(Nc1ccc(F)c(COc2cccnc2)c1)c1cccc(F)c1 |  | < 200 |
| COc1ccccc1COc1cccnc1N |  | < 1000 |
| Nc1nccnc1OCc1cccc2ccccc12 |  | < 1000 |
| CC(C)(C)c1ccc(-n2nc(C3CC3)cc2NC(=O)Nc2ccc(F)c(COc3cnccn3)c2)cc1 |  | < 200 |
| O=C(Nc1ccc(F)c(COc2cnccn2)c1)Nc1n[nH]cc1-c1ccccc1 |  | < 20 |
| O=C(Nc1ccc(F)c(COc2cnccn2)c1)c1cccc(Oc2ccccc2)c1 |  | < 2 |
| Nc1ncccc1OCc1ccccc1C(F)(F)F |  | < 100 |

More lines, now with the values ahead:

| IC50 [1] [µM] | IC50 [2] [µM] | SMILES |
| --- | --- | --- |
| 0.97 | < 2 | O=C(Nc1ccc(Cl)c(COc2ccc(NCCO)nc2)c1)c1cc(F)cc(N2CCOCC2)c1 |
| 0.21 | < 2 | O=C(Nc1ccc(Cl)c(COc2cnccn2)c1)c1cc(F)cc(N2CCOCC2)c1 |
|  | < 2 | O=C(Nc1cnc(OCc2c(Cl)cccc2Cl)cn1)N1CCOCC1 |
|  | < 2 | Cc1nc2sccn2c1C(=O)Nc1ccc(F)c(COc2cnccn2)c1 |
|  | < 200 | CN1CCC(CC(=O)Nc2cnc(OCc3c(Cl)cccc3Cl)cn2)CC1 |
|  | < 20 | CN1CCN(CC(=O)Nc2cnc(OCc3c(Cl)cccc3Cl)cn2)CC1 |
|  | < 1000 | COc1cc(C(=O)Nc2ccc(F)c(COc3cnccn3)c2)nc(Cl)n1 |
|  | < 200 | O=C(CN1CCCCC1)Nc1cnc(OCc2c(Cl)cccc2Cl)cn1 |
|  | < 200 | Clc1cccc(Cl)c1COc1cnccn1 |
|  | < 1000 | Clc1cnc(OCc2c(Cl)cccc2Cl)cn1 |
|  | < 200 | O=C(Nc1ccc(Cl)c(COc2cccnc2)c1)c1cccc(F)c1 |
|  | < 200 | Cc1nc(-c2cc(C(=O)Nc3ccc(F)c(COc4cnccn4)c3)no2)cs1 |
|  | < 1000 | O=C(NCCO)c1cnc(OCc2c(Cl)cccc2Cl)cn1 |
|  | < 200 | CC(C)(C)c1cc(NC(=O)Oc2cccc(COc3cnccn3)c2)n(-c2ccccc2)n1 |
|  | < 1000 | Nc1ncc(OCc2ccccc2)nc1Br |
|  | < 200 | OCCNc1cnc(OCc2c(Cl)cccc2Cl)cn1 |
|  | < 1000 | CC(=O)Nc1ccc(Cl)c(COc2cccnc2)c1 |

| IC50 [1] [µM] | IC50 [2] [µM] | SMILES |
| --- | --- | --- |
|  | < 200 | CC1(C(=O)Nc2cnc(OCc3c(Cl)cccc3Cl)cn2)CC1 |
|  | < 200 | C=CS(=O)(=O)Nc1cnc(OCc2c(Cl)cccc2Cl)cn1 |
|  | < 2 | CC(CO)(CO)NC(=O)c1cnc(OCc2c(Cl)cccc2Cl)cn1 |
|  | < 20 | Clc1cccc(Cl)c1COc1cnc(NCc2ccccc2)cn1 |
|  | < 1000 | c1ccc(CNc2cccc(COc3cnccn3)c2)cc1 |
|  | < 1000 | C[S+]([O-])c1nnc(NC(=O)Nc2ccc(F)c(COc3cnccn3)c2)s1 (configuration not stated) |
|  | < 20 | NC(=O)Nc1ccc(Cl)c(COc2cccnc2)c1 |
|  | < 2 | CC(C)(C)c1cc(C(=O)Nc2ccc(F)c(COc3cnccn3)c2)cc(C(C)(C)C)c1 |
|  | < 200 | CCN(CC)C(=O)Nc1cnc(OCc2c(Cl)cccc2Cl)cn1 |
|  | < 2 | CC(C)(C)c1cc(NC(=O)Nc2ccc(F)c(COc3cnccn3)c2)n(Cc2ccccc2)n1 |
|  | < 20 | O=C(Nc1ccc(Cl)c(COc2cnccn2)c1)c1ccccc1 |
|  | < 2 | CC(C)(C)c1cccc(C(=O)Nc2ccc(F)c(COc3cnccn3)c2)c1 |
|  | < 200 | O=C(Nc1ccc(Cl)c(COc2cccnc2)c1)c1ccncc1 |
|  | < 1000 | Nc1cccc(COc2cncc(Cl)n2)c1 |
|  | < 2 | CC(C)(C)c1cc(NC(=O)Nc2ccc(F)c(COc3cnccn3)c2)n(-c2ccc(Cl)nn2)n1 |
|  | < 200 | CC(C)(CO)C(=O)Nc1cnc(OCc2c(Cl)cccc2Cl)cn1 |
